Measured values reported in patent US20190274308A1, “METHOD FOR PROTECTING PLANTS FROM PESTS USING A PESTICIDE COMPOSITION WITH ADJUSTABLE PERSISTENCE AND DEGRADABILITY” (Flechsig Patent Company LLC, priority 2016, published 2019).

Type: physicochemical
Description: A further characterizing parameter of the soil is the content of microorganisms, in particular bacteria, fungi and microfauna.
Tables 5 and 6 below indicate the degradation times of exemplary poly(alkyl)guanidines depending on various contents of microorganisms in the soil.
These determinations were obtained basically according to established methods, in particular as described in “Bodenbiologische Arbeitsmethoden”, 2nd revised and expanded edition, F. Schinner, E. Kandeler, R. Öhlinger, R. Margesin (eds.) (1993).
To determine the total bacterial count according to Trolldenier (1972), a soil suspension is applied onto a defined area of a slide and the dried soil film is stained with acridine orange. The bacterial count is determined in a plurality of counting fields under the fluorescence microscope and from this the total bacterial count of the soil sample is calculated.
The ergosterol of the soil fungi is saponified with KOH, extracted with n-hexane in the separating funnel, dried at 40° C. in the rotary evaporator and then dissolved in methanol. Detection is achieved by means of HPLC at 282 nm. The procedure is based on the method of Zelles et al. (1987) and was modified in a few points.
For the sake of simplicity calculation is performed using the dimensions of the dishes. At least 10 individuals per species should be measured. The resulting volume mean value can be equated numerically with the weight, as the specific mass of the microfauna is approximately 1 g cm^−3.

Row | Substance | Difference days min/max degradation time, bact., fungi, microfauna
1 | poly(tetramethylene)guanidine [C4 PTMG] | 22 days
2 | poly(octamethylene)guanidine [C8 POMG] | 36 days
3 | poly(hexamethylene)guanidine [C6 PHMG] | 30 days
